From patent EP0326329B1, “Quinazoline derivatives useful as insecticides” (Dow AgroSciences LLC, priority 1988, dated 1989) come the findings set out here.

Type in all cases: in vivo
Series [1] deals with melon aphids (Aphis gossypii Glover). Nature of the series: Mite/insect screen, sprayed squash cotyledons (MA). As to conditions: percent mortality. Put shortly:
(§1)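 Steps: formulate compound in acetone/alcohol 50:50 carrying emulsifiers; dilute with water; spray leaves until runoff on upper and lower surfaces; air-dry one hour; for armyworm, excise two […] leaves into a dish of larvae; after exposure, score mortality and plant injury.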

A further series deals with Plasmopara viticola. As to the kind of experiment: Fungicide field tests. To be noted: crop: grape. The source says: (§2) Selected compounds were field tested on various crops against a variety of pathogens. […]
In series [2] the test system is Southern corn rootworm (Diabrotica undecimpuctata howardi Barber). Nature of the series: Mite/insect screen, soil treatment (CRW). As to conditions: percent mortality, soil treatment. Put shortly: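 Five 2–3 instar larvae were placed on dry sandy soil with a presoaked corn seed after the soil had received 1 mL of compound solution and dried 6–12 h; cups were kept capped at 23°C. Mortality (%) and phytotoxicity were read after standard exposure. Formulation: acetone/alcohol with emulsifiers, water-diluted.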

For series [3], the system named is Botrytis cinerea (gray mold). As to the kind of experiment: Greenhouse Test 1, foliar spray fungicide screen (GRAY MOLD), host grape berries. As to conditions: disease control rating, 400 ppm (+++ at 100 ppm).
In series [4] the test system is southern armyworm (Spodopetra eridania Cramer). Nature of the series: Mite/insect screen, sprayed squash leaves (SAW). As to conditions: Spodoptera eridania, percent mortality, read-out: SAW RESULTS %. The procedure, abridged: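 Acetone/alcohol (50:50) + emulsifier blends 23 g/L and 13 g/L; water dilution to test concs. Spray both leaf surfaces to runoff, dry 1 h. For armyworm, 2 excised uninfested leaves into Petri dish with larvae. Readout: % mortality, phytotoxicity.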

The subject of series [5] is Pyricularia oryzae (rice blast). As to conditions: disease control rating, foliar spray, host rice; 400 ppm (+++ at 100 ppm).
The subject of series [6] is Twospotted spider mites (Tetranychus urticae Koch). As to the kind of experiment: Mite/insect screen, sprayed squash cotyledons (SM). As to conditions: percent mortality. Put shortly: as §1
Series [7] concerns Septoria tritici (leaf blotch). As to the kind of experiment: Greenhouse Test 1, foliar spray fungicide screen (LEAF BLOT), host wheat. As to conditions: disease control rating, 400 ppm (+++ at 100 ppm).
A further series has as its system Phytophthora infestans. As to conditions: crop: potato.
For series [8], the system named is Erysiphe graminis tritici (powdery mildew). Nature of the series: Greenhouse Test 1, foliar spray fungicide screen (POWD MDEW), host wheat. As to conditions: disease control rating, 400 ppm (+++ at 100 ppm).
For series [9], the system named is Venturia inaequalis (apple scab). As to the kind of experiment: Greenhouse Test 1, foliar spray fungicide screen (APPL SCAB), host apple seedling. As to conditions: disease control rating, 400 ppm (+++ at 100 ppm).
Series [10] deals with Puccinia recondita tritici (leaf rust). Nature of the series: Greenhouse Test 1, foliar spray fungicide screen (LEAF RUST), host wheat. To be noted: disease control rating, 400 ppm (+++ at 100 ppm).
For series [11], the system named is Pseudoperonospora cubensis (downy mildew). As to the kind of experiment: Greenhouse Test 1, foliar spray fungicide screen (DOWN MDEW), host squash. To be noted: disease control rating, 400 ppm (+++ at 100 ppm).
The subject of series [12] is Cercospora beticola (leaf spot). Nature of the series: Greenhouse Test 1, foliar spray fungicide screen (LEAF SPOT), host sugar beet. To be noted: disease control rating, 400 ppm (+++ at 100 ppm).
Another series deals with Sphaerotheca fuliginea. As to the kind of experiment: Fungicide field tests. As to conditions: crop: cucumber.
Description: as §2

The next series has as its system Erysiphe graminis hordei. As to the kind of experiment: Fungicide field tests. To be noted: crop: barley.
Description: as §2

The subject of a further series is Alternaria brassicae. As to the kind of experiment: Fungicide field tests. To be noted: crop: rape.
Description: as §2

The test system of another series is Podosphaera leucotricha. As to the kind of experiment: Fungicide field tests. As to conditions: crop: apple.
Description: as §2

The subject of the next series is Rhynchosporium secalis. As to the kind of experiment: Fungicide field tests. To be noted: crop: barley.
Description: as §2

For the next series, the system named is Septoria nodorum. Nature of the series: Fungicide field tests. As to conditions: crop: wheat.
Description: as §2

The subject of series [13] is Erysiphe graminis tritici. Nature of the series: Fungicide field tests. As to conditions: crop: wheat.
Description: as §2

The test system of series [14] is Pseudocercosporella herpotrichoides. Nature of the series: Fungicide field tests. As to conditions: crop: wheat.
Description: as §2

The test system of the next series is Uncinula necator. As to the kind of experiment: Fungicide field tests. To be noted: crop: grapes.
Description: as §2

Another series has as its system Pyrenophora teres. As to the kind of experiment: Fungicide field tests. To be noted: crop: barley.
Description: as §2

Where [15] appears, read: Aphis gossypii, spray rate 200 ppm, read-out: MA RESULTS %.
The mark [16] stands for this setting: Diabrotica, CRW rate 12.00 ppm, read-out: CRW RESULTS %.
Setting [17] is: Tetranychus urticae, spray rate 200 ppm, read-out: SM RESULTS %.

For the compound `Clc1ccc(CCOc2ncnc3ccccc23)cc1` [Example 5, 4-[2-(4-chlorophenyl)ethoxy]quinazoline], the results for the mortality at 200 ppm in [1] (setting [15]), in [4] (spray rate 200 ppm) and in series [6] (setting [17]) were 100%, 20% and 100%, respectively. The mortality at 400 ppm in series [1] (Aphis gossypii, spray rate 400 ppm, read-out: MA RESULTS %) turned out to be 100%; in [4] (spray rate 400 ppm), 0%; in series [6] (Tetranychus urticae, spray rate 400 ppm, read-out: SM RESULTS %), 50%. Further, the “pathogen against which compound demonstrated activity in field tests” value (“pathogen” for short) with Plasmopara viticola is reported as “Plasmopara viticola”; with Phytophthora infestans it was “Phytophthora infestans”. Further, the mortality at 12 ppm in series [2] (setting [16]) is 0%. Moreover, the mortality at 24 ppm in series [2] (Diabrotica, CRW rate 24.00 ppm, read-out: CRW RESULTS %) was 0%. Besides, the “GRAY MOLD” value in [3] is reported as “- (- = 0-19% control at 400 ppm)”. The “RICE BLAST” value in [5] is on record as “+++ (+++ = 90-100% control at 100 ppm)”. Also, the “LEAF BLOT” value in series [7] was “++ (++ = 90-100% control at 400 ppm)”. The “POWD MDEW” value in [8] is on record as “+++ (+++ = 90-100% control at 100 ppm)”. Besides, the “APPL SCAB” value in series [9] is listed as “+++ (+++ = 90-100% control at 100 ppm)”. In series [10], the “LEAF RUST” value was “+++ (+++ = 90-100% control at 100 ppm)”. The “DOWN MDEW” value in [11] is recorded as “+ (+ = 20-89% control at 400 ppm)”. For the same compound, the “LEAF SPOT” value in [12] is “+++ (+++ = 90-100% control at 100 ppm)”.

Regarding `c1ccc2cc(CCNc3ncnc4ccccc34)ccc2c1` [Example 53, N-[2-(2-naphthyl)ethyl]-4-quinazolinamine], the mortality at 200 ppm in series [1] (setting [15]) and in [6] (setting [17]) was 0% in each case. The “MA RESULTS %” value in series [1] (spray rate 200 ppm) is on record as 0%. Further, the “pathogen” value was “Sphaerotheca fuliginea” with Sphaerotheca fuliginea; “Erysiphe graminis hordei” in the series on Erysiphe graminis hordei; “Alternaria brassicae” in the series with Alternaria brassicae; “Podosphaera leucotricha” in the series on Podosphaera leucotricha; “Rhynchosporium secalis” with Rhynchosporium secalis; “Septoria nodorum” in the series on Septoria nodorum. In addition, the “pathogen” value in series [13] is listed as “Erysiphe graminis tritici”; in [14] it was “Pseudocercosporella herpotrichoides”; in the series with Uncinula necator, “Uncinula necator”; in the series with Plasmopara viticola, “Plasmopara viticola”; in the series with Pyrenophora teres, “Pyrenophora teres”. Moreover, the mortality at 12 ppm in [2] (setting [16]) was found to be 0%. Besides, the “CRW RESULTS %” value in series [2] (CRW rate 12.00 ppm) is 0%. Besides, the “GRAY MOLD” value in series [3] is listed as “- (- = 0-19% control at 400 ppm)”. For the same compound, the “RICE BLAST” value in series [5] was “+++ (+++ = 90-100% control at 100 ppm)”. The “SM RESULTS %” value in [6] (spray rate 200 ppm) is given as 0%. Also, in series [7], the “LEAF BLOT” value is given as “+++ (+++ = 90-100% control at 100 ppm)”. Besides, in series [8], the “POWD MDEW” value is listed as “+++ (+++ = 90-100% control at 100 ppm)”. Further, the “APPL SCAB” value in series [9] is recorded as “+ (+ = 20-89% control at 400 ppm)”. The “LEAF RUST” value in series [10] is listed as “+++ (+++ = 90-100% control at 100 ppm)”. Moreover, the “DOWN MDEW” value in series [11] is recorded as “+++ (+++ = 90-100% control at 100 ppm)”. In [12], the “LEAF SPOT” value is reported as “- (- = 0-19% control at 400 ppm)”.
